Activity calls are given as the source filed them.

Test [1] deals with Ras and Rab interactor 1/Tyrosine-protein kinase ABL1 (Homo sapiens, UniProt P00519+Q13671). Format: functional.
Test [2] deals with T1, DNA repair and recombination protein RAD54-like (Homo sapiens, UniProt Q92698).
T1 sequence (Q92698 whole entry): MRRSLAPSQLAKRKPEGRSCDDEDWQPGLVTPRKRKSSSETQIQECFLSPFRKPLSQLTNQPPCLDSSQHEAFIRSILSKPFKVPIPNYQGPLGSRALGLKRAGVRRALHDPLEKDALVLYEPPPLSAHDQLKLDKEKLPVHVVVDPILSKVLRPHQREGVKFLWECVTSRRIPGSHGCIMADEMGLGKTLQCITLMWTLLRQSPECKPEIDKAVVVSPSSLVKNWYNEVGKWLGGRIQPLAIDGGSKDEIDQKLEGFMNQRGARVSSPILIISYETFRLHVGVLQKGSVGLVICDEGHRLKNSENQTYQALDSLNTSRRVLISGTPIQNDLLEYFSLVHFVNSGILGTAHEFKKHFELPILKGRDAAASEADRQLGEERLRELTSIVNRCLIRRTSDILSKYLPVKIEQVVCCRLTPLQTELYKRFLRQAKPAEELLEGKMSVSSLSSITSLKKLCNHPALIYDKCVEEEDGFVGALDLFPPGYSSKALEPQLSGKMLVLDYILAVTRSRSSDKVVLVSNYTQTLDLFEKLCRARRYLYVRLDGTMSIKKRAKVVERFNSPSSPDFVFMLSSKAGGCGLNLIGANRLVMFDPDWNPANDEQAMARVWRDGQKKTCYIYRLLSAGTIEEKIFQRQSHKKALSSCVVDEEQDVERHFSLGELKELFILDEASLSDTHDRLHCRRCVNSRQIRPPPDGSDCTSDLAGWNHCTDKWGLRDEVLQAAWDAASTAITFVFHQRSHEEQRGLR
Put plainly: RAD54 Holliday junction migration blockers – biochemical, fluorescence, cherry-picked samples, dose series, confirmation (AID 651657). The test is classed as functional.

The target in test [3] is T2, Sentrin-specific protease 6 (Homo sapiens, UniProt Q9GZR1).
T2 sequence (Q9GZR1 whole entry): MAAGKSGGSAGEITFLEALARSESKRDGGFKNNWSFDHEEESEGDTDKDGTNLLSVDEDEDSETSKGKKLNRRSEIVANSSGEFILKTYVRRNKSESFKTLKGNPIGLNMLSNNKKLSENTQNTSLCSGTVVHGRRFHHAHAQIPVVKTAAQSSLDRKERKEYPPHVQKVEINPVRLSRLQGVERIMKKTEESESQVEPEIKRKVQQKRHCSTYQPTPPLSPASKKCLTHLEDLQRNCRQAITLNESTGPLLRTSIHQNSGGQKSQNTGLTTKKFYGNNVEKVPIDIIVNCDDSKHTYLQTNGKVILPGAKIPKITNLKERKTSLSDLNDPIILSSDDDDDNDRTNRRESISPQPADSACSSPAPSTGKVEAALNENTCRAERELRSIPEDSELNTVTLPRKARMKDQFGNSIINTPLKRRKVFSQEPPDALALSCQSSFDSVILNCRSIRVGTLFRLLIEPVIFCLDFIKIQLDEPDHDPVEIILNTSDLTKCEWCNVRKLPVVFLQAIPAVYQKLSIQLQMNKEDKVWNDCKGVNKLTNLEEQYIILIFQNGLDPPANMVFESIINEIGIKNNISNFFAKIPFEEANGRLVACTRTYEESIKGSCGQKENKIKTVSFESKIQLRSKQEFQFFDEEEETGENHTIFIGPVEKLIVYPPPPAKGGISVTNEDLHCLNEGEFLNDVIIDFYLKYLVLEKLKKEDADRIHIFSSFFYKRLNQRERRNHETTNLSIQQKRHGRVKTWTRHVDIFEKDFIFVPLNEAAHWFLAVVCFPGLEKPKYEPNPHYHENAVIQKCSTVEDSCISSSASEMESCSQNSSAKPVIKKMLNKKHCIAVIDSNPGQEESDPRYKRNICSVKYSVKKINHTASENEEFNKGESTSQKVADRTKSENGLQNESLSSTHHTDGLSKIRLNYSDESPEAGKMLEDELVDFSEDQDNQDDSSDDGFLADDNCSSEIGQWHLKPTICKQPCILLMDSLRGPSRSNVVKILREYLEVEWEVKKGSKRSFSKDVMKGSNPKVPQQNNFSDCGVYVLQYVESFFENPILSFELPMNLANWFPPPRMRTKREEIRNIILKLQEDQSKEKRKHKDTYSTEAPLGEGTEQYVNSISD
Put plainly: SAR Analysis of small molecule inhibitors of Sentrin-specific protease 6 (SENP6) using a Luminescent assay. [Related pubchem assays (depositor defined):AID2582, AID2599]. The test is classed as functional.

Another test concerns the target T3, Caspase-3 (Homo sapiens, UniProt P42574).
T3 sequence (P42574 whole entry): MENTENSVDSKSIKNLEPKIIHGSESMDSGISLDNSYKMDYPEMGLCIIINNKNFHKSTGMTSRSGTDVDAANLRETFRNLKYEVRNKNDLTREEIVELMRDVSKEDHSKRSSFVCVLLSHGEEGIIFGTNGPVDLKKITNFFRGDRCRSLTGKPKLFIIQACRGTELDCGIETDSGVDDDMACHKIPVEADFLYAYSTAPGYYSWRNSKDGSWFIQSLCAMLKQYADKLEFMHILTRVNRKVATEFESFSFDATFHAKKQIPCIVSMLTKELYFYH
The experiment in a line: SAR Analysis of small molecule inhibitors of Sentrin-specific proteases (SENPs) using a Caspase-3 Selectivity assay. [Related pubchem assays (depositor defined):AID2540, AID2599, AID434973, AID489001]. Format: functional.

Test [4] addresses T4, Sentrin-specific protease 8 (Homo sapiens, UniProt Q96LD8).
T4 sequence (Q96LD8 whole entry): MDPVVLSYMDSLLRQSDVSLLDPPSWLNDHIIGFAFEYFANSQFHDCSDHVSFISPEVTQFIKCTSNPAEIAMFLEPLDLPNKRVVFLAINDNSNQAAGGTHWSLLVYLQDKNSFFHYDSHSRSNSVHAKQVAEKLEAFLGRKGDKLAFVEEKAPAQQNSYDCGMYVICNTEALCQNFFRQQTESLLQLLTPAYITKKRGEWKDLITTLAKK
Put plainly: inhibition of human SENP8 cleavage activity – biochemical, luminescence, SAR follow-up (AID 504501). The test is classed as functional.

In test [5] the target is T5, Sentrin-specific protease 7 (Homo sapiens, UniProt Q9BQF6).
T5 sequence (Q9BQF6 whole entry): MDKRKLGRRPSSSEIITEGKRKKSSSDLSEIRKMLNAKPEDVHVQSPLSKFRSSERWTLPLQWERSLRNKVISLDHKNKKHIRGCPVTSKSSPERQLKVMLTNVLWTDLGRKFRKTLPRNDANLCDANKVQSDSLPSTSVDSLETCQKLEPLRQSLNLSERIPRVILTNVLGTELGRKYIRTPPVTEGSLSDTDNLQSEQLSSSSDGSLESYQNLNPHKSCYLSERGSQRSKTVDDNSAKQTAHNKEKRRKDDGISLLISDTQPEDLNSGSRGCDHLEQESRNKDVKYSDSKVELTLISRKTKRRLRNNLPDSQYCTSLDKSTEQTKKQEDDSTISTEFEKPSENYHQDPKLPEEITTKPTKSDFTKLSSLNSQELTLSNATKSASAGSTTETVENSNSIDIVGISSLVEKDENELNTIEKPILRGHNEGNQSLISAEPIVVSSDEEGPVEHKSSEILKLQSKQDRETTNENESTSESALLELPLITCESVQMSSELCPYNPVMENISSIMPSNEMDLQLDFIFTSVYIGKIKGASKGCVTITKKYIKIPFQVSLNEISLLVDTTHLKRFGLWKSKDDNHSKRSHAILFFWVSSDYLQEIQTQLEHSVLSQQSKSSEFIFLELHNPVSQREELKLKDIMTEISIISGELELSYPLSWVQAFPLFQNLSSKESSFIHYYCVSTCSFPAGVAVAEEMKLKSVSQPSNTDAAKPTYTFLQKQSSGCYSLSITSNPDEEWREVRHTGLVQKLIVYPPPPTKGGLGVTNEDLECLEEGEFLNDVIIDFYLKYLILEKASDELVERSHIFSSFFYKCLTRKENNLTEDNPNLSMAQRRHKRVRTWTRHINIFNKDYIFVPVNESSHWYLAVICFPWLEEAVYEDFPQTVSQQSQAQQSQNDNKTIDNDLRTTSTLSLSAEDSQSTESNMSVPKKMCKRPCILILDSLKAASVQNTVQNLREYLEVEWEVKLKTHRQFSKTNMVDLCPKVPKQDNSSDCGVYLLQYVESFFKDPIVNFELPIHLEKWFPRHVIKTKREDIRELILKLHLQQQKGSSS
Put plainly: inhibition of human SENP7 cleavage activity – biochemical, luminescence, SAR follow-up (AID 504497). The test is classed as functional.

The target in test [6] is Photoreceptor-specific nuclear receptor (Homo sapiens, UniProt Q9Y5X4). Format: functional, cell-based.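 Further: CHO-S cells with Gal4-NCOR and VP16-NR2E3 two-hybrid luciferase reporter.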
Chain of Photoreceptor-specific nuclear receptor (Q9Y5X4 whole entry, the tested form may be a part): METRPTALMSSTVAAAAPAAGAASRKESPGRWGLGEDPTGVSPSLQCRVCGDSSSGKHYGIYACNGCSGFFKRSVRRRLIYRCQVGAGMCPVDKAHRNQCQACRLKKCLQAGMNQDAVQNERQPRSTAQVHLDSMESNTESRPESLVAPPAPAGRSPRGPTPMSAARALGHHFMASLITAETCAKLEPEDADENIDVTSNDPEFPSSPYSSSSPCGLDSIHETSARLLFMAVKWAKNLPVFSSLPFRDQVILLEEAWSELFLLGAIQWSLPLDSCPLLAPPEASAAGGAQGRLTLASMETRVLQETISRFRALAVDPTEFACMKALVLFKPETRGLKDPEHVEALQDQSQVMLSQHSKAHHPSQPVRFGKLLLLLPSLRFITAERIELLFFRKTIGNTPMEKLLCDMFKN
Test [7] is described as follows: viability loss in HeLa cells – cytotoxicity control for MgcRacGAP inhibitor project, dose response (AID 624300). Format: functional.
The target of test [8] is T6, Rac GTPase-activating protein 1 (Homo sapiens, UniProt Q9H0H5).
T6 sequence (Q9H0H5 whole entry): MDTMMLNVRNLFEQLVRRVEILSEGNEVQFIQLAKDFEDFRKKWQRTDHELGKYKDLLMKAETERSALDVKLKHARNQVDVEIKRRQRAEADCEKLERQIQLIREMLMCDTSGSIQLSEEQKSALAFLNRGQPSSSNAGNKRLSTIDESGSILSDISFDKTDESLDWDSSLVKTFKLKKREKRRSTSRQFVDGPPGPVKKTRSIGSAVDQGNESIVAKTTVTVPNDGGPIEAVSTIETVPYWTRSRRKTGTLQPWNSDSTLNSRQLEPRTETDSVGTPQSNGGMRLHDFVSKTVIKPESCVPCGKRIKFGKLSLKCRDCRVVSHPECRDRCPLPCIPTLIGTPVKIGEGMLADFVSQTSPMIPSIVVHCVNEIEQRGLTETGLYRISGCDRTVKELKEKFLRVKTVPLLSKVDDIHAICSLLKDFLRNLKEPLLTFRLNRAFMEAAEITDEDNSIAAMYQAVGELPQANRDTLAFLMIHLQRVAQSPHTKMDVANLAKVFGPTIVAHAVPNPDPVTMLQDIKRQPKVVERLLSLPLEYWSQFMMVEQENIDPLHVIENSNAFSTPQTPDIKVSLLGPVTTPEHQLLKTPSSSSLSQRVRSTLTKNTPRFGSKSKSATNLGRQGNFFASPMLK
The experiment in a line: blockers of MgcRacGAP-driven Rac1 GTP hydrolysis – biochemical, ADP Hunter fluorescence, primary and confirmatory, confirmation (AID 624330). The test is classed as functional.

Test [9] concerns the target Heat shock protein HSP 90-alpha (Homo sapiens, UniProt P07900). The test is classed as functional, organism-based.
The target in test [10] is T7, DNA repair protein RAD52 homolog (Homo sapiens, UniProt P43351).
T7 sequence (P43351 whole entry): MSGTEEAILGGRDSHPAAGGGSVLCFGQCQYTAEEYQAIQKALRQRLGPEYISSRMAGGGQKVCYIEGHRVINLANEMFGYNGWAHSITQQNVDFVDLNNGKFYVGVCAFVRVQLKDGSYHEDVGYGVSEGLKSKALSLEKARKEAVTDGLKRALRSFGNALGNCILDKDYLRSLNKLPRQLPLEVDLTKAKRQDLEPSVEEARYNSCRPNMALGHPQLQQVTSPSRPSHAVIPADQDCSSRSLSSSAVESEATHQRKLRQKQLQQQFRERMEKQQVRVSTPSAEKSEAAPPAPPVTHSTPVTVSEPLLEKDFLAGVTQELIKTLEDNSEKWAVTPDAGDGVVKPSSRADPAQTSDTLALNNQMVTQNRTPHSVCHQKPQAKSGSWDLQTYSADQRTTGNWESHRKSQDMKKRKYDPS
Format: functional, biochemical.

Chain of Ras and Rab interactor 1/Tyrosine-protein kinase ABL1 (P00519 whole entry): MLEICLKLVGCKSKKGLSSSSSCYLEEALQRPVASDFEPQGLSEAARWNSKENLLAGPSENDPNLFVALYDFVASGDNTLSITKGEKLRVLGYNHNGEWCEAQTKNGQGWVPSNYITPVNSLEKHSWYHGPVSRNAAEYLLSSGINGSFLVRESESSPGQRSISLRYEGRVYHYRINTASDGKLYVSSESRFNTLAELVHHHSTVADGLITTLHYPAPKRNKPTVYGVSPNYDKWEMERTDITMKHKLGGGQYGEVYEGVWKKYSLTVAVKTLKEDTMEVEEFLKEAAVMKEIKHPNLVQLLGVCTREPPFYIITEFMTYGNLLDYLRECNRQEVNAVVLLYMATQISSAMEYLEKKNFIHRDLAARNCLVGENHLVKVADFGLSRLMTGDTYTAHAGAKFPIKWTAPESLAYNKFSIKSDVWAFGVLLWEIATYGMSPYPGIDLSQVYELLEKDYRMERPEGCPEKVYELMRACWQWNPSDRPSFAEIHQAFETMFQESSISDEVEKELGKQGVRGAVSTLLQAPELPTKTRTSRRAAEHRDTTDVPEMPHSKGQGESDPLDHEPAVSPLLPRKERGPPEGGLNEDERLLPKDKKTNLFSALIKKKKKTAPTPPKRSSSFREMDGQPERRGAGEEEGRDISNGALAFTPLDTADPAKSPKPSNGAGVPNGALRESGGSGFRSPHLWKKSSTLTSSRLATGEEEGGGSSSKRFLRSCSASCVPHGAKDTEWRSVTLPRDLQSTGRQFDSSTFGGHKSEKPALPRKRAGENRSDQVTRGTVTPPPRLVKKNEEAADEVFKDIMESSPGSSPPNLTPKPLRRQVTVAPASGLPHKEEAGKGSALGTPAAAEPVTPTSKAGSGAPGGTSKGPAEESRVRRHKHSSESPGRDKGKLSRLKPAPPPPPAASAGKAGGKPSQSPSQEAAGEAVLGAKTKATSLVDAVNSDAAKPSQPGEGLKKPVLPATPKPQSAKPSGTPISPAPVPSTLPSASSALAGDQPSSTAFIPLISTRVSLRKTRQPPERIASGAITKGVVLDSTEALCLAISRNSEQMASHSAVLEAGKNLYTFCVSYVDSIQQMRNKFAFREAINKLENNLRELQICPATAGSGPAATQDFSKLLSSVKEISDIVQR
Chain of Ras and Rab interactor 1/Tyrosine-protein kinase ABL1 (Q13671 whole entry): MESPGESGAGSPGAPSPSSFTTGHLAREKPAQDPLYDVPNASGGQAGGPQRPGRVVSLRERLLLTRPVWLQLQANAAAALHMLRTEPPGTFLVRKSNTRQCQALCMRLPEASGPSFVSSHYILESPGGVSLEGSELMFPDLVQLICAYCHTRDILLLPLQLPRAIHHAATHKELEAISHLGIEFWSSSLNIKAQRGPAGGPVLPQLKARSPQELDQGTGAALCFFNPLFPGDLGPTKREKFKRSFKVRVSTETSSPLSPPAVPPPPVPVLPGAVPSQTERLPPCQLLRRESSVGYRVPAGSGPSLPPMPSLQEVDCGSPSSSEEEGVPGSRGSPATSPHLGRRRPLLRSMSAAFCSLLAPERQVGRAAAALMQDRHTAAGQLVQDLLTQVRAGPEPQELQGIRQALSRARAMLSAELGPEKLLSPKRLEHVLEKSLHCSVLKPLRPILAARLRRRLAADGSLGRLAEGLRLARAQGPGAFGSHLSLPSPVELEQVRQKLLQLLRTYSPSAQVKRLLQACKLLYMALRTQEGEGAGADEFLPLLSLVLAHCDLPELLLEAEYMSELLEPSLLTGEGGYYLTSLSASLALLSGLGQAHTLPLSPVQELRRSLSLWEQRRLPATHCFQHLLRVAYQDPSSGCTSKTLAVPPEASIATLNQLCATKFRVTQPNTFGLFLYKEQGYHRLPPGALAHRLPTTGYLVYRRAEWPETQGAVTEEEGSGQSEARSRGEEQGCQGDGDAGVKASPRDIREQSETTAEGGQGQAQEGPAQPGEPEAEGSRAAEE

In general, IC50 refers to the concentration that inhibits the measured activity by half. Take `CCOc1ccc(CCNC(=O)CN2C(=O)c3cccnc3Oc3ccc(Cl)cc32)cc1`: in [1], the IC50 is > 73.5 µM (inactive).

As for `COc1ccc(CCNc2cc(=O)[nH]c(N)n2)cc1`, the IC50 in test [1] was 5.15 µM (active).

By AC50 is commonly meant the concentration at which the activity in the assay is half-maximal. For the compound `COc1ccccc1Nc1c2ccccc2nc2ccccc12`, the AC50 in test [2] is 29.8 µM (active).

`COc1ccc2nc(NC(=O)c3ccc4c(c3)OCCO4)sc2c1`: the IC50 (in test [3]; on Caspase-3; in test [4]; in test [5]) was > 99 µM (inactive) each time.

In the case of `Cc1csc(C(=O)Nc2nc3ccc(Cl)cc3s2)c1`, the IC50 in test [3] was > 99 µM (inactive); at Caspase-3, 36 µM (active); in test [4], > 99 µM (inactive); in [5], 89 µM (active).

The CC50 is the concentration giving 50% cytotoxicity. `O=C1C=CC2(O[C@H](c3ccccc3)[C@@H](c3ccccc3)O2)[C@H](Sc2ccccc2O)C1`: the results for the IC50 in test [6] and in [8] were 4.1 µM (active) and 43.8 µM (active), respectively. The 50% cytotoxic concentration (CC50) in test [7] is 50 µM (active). Also, the AC50 in test [9] is 4.16 µM (active).

For `COc1cccc(-c2cc3nc(NCCN4CCCC4)n(C)c(=O)c3s2)c1`, the AC50 in test [2] is 45.4 µM (active); in test [10] it was 5.5 µM (active).

For `Cc1cc(NC(=O)COC(=O)CNC(=O)c2sc3ccccc3c2Cl)no1`, the IC50 (in [3]; at Caspase-3; in test [4]; in [5]) was > 99 µM (inactive) in each case.

The values are drawn from ChEMBL document CHEMBL1201862, “PubChem BioAssay data set” (2004).
